We go through seven compounds from article PMC10891983, “First Description of Marinoquinoline Derivatives’ Activity against Toxoplasma gondii” (Pharmaceutics, 2024).

Series [1] can be described thus: Assay for evaluating mammalian cytotoxicity (MTT). In kind it is cell-based. To be noted: human, human foreskin fibroblast (HFF) cells, ± SD of three independent experiments, read-out: CC50 (Half Cytotoxic Concentration).
Another series deals with T. gondii tachyzoites. Description: microbe, parasite or virus in culture. In kind it is cell-based, Toxoplasma gondii. To be noted: for SI (Selectivity index): CC50 (HFF)/EC50 (T. gondii); for EC50: Toxoplasma gondii, T. gondii RH-2F1 tachyzoites in HFF, 72 h, ± SD of three independent experiments, read-out: EC50 (Half Effective Concentration).
In series [2] the test system is RH strain T. gondii tachyzoites. In kind it is in vivo. The method, then:
To evaluate the effectiveness of MQ-1 in treating acute T. gondii infection in vivo, a murine model was employed, utilizing Swiss mice in accordance with established protocols. […] Treatment involved the administration of compounds dissolved in a 4% DMSO solution in water, and was conducted one day post-infection. […] . As for the control group, they were administered 100 µL of the vehicle utilized for MQ-1 dilution, consisting of a 4% DMSO solution in water. Continuous monitoring of the mice included daily assessments for signs of toxoplasmosis. These signs encompassed impaired mobility, feeding difficulties, weight loss, self-mutilation, and severe ascites. […] The implementation of humane endpoints aimed to mitigate any potential pain or suffering in the animals, leading to their euthanasia when necessary. At the end of the experimental period, euthanasia was performed on all remaining mice, and the peritoneal parasite load was estimated using a Neubauer chamber.

Another series has as its system ME49 strain T. gondii. Briefly: Chronic toxoplasmosis model, ME49-infected C57BL/6 mice.
[3] abbreviates: vs pyrimethamine 12.5 mg/kg/day.

Entries after “also recorded” stand apart in the source; their conditions may differ.

Description for ME49 strain T. gondii: Male Swiss mice (Mus musculus) (8 weeks old) for the acute toxoplasmosis experiments and female C57BL/6 mice (4 weeks old) for the chronic toxoplasmosis experiments were sourced from the animal breeding facility at the Universidade Federal de Alfenas, Brazil. Strict adherence to the principles of good animal practice, as outlined in the Brazilian Guidelines for Care and Utilization of Animals by the Conselho Nacional de Controle e Experimentação Animal (CONCEA), was observed during the handling of all animals. The study protocol received approval from the Ethics Committee for Animal Experimentation at the Universidade Federal de Alfenas under Protocols 033/2021 and 0006/2023. All necessary precautions were taken to minimize any potential suffering experienced by the animals.
The mice were infected with 10 cysts of the ME49 strain of T. gondii via intraperitoneal inoculation, following the protocol by [16]. After a 40-day infection period, random assignment was used to divide the mice into distinct experimental groups, each consisting of four mice. These experimental groups were subjected to different treatments: MQ-1, administered either at a dosage of 25 mg/kg/day or 12.5 mg/kg/day, prepared with a 4% DMSO solution in water. […] The administration was carried out via oral gavage, with a final volume of 100 µL per dose. For the control group, 100 µL of the vehicle used to dilute MQ-1 (4% DMSO in water) was administered. […] On the 51st day post-infection, euthanasia was performed for all animals, followed by brain tissue collection for RNA extraction and quantification, as detailed in [18]. DNA extraction and purification were carried out using the PureLink Genomic DNA Minikit (Invitrogen. Carlsbad, CA, USA) following the manufacturer’s instructions. […] After extraction, RNA samples were immediately processed for cDNA synthesis and underwent quantitative real-time (qPCR) analysis. […]
Data on parasite burden in acute and chronic infection in treated and untreated groups were analyzed for statistical significance using One-Way ANOVA, followed by the Tukey post-test. […]

Turning to `CC(C)(C)OC(=O)Nc1ccc(-c2nc3ccc(OC(F)(F)F)cc3c3cc[nH]c23)cc1` [MQ-4], the CC50 at 72 h in series [1] came to 4.16 ± 1.05 µM. Moreover, in the series with T. gondii tachyzoites, the “SI (Selectivity index)” value is 3.18 and the EC50 was 1.31 ± 0.31 µM.

In the case of `COc1ccc2c(c1)nc(-c1ccc(N3CCC(F)CC3)cc1)c1[nH]ccc12` [MQ-5], in series [1], the CC50 at 72 h stood at 5.05 ± 1.63 µM. Also, in the series with T. gondii tachyzoites, the “SI (Selectivity index)” value is on record as 3.52 and the EC50 turned out to be 1.43 ± 0.37 µM.

Turning to `COc1ccc2c(c1)nc(-c1ccc(Br)cn1)c1[nH]ccc12` [MQ-6], in series [1], the CC50 at 72 h came to 28.6 ± 7.33 µM. In the series with T. gondii tachyzoites, the “SI (Selectivity index)” value worked out at 7.55 and the EC50 is 3.78 ± 0.67 µM.

Consider `COc1ccc2c(c1)nc(-c1ccc(N3CCNCC3)cc1)c1[nH]ccc12` [MQ-2], for which, in series [1], the CC50 at 72 h stood at 29.1 ± 0.84 µM. Moreover, in the series with T. gondii tachyzoites, the “SI (Selectivity index)” value was 17.39 and the EC50 was found to be 1.67 ± 0.4 µM.

As to `COc1ccc2c(c1)nc(-c1c[nH]c3ccccc13)c1[nH]ccc12` [MQ-1], the CC50 at 72 h in series [1] came out at 30.5 ± 1.8 µM. Further, the EC50 with T. gondii tachyzoites amounted to 1.46 ± 0.45 µM. Besides, in series [2] (Swiss mice, 12.5 mg/kg/day oral for 8 days), the “signs of toxicity throughout the treatment” value is recorded as “No signs of toxicity were observed”. The “difference between the tested compound and the standard drug, acute evaluation” value in series [2] (setting [3]) is “no statistically significant differences”. Moreover, the “cerebral parasitic load vs vehicle” value in the series with ME49 strain T. gondii (C57BL/6 mice, ME49 strain, 25 mg/kg/day oral for 10 consecutive days from day 41 post-infection, qPCR, p < 0.01, 25 mg/kg/day) was “significantly reduced; also recorded: significant (p < 0.01) reduction”. Further, in the series with ME49 strain T. gondii (setting [3]), the “difference between the tested compound and the standard drug, chronic evaluation” value was “no statistically significant differences”.

In the case of `CC(C)(C)OC(=O)Nc1ccc(-c2nc3ccc(Cl)cc3c3cc[nH]c23)cc1` [MQ-3], the CC50 at 72 h in series [1] worked out at 5.36 ± 0.91 µM. Further, in the series with T. gondii tachyzoites, the “SI (Selectivity index)” value came out at 3.35 and the EC50 was determined as 1.6 ± 0.54 µM.

For `CCc1nc(N)nc(N)c1-c1ccc(Cl)cc1` [PYR, pyrimethamine, reference compound], in series [1], the CC50 at 72 h was 68.1 ± 4.26 µM. For the same compound, the EC50 in the series on T. gondii tachyzoites came to 0.29 ± 0.19 µM.
